Measurements from PubChem BioAssay AID330 (DTP/NCI, 2004).
Values joined by “and” are separate entries in the source; they are usually repeats but may differ in a detail not shown here. Equal entries are not always repeated. Inconclusive results and toxic doses are left out.

Tested on: P388 leukemia ip, CD2F1 mice, survival T/C
Assay: NCI In Vivo Anticancer Drug Screen. Data for tumor model P388 Leukemia (intraperitoneal) in CD2F1 (CDF1) mice
Conditions: endpoint: median survival time, higher = longer survival
Outline: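 Mice carrying the transplanted tumor received test compound or vehicle. Survival was recorded in each group, and the value is the treated-group measurement divided by that of the vehicle-treated control group.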

[1] = dose: 6.25 mg/kg/injection, schedule: Q01DX005 (ip), vehicle: saline with Tween-80
[2] = dose: 12.5 mg/kg/injection, schedule: Q01DX005 (ip), vehicle: saline with Tween-80
[3] = dose: 50.0 mg/kg/injection, schedule: Q01DX005 (ip), vehicle: Klucel (hydroxypropylcellulose) (HPC)
[4] = dose: 100.0 mg/kg/injection, schedule: Q01DX005 (ip), vehicle: Klucel (hydroxypropylcellulose) (HPC)
[5] = dose: 200.0 mg/kg/injection, schedule: Q01DX005 (ip), vehicle: Klucel (hydroxypropylcellulose) (HPC)
[6] = dose: 60.0 mg/kg/injection, schedule: Q01DX005 (ip), vehicle: saline with Tween-80
[7] = dose: 120.0 mg/kg/injection, schedule: Q01DX005 (ip), vehicle: saline with Tween-80

Structure (SMILES): CCC[CH2][Sn]([CH2]CCC)([O]c1ccccc1C=Nc1ccc(F)cc1)[O]c1ccccc1C=Nc1ccc(F)cc1
- T/C [1]: 116 % of control
- T/C [2]: 122 % of control

Structure (SMILES): NNc1n[nH]c(=O)c2cnccc12
- T/C (dose: 25.0 mg/kg/injection, schedule: Q04DX002 (ip), vehicle: saline with Tween-80): 96 % of control
- T/C (dose: 50.0 mg/kg/injection, schedule: Q04DX002 (ip), vehicle: saline with Tween-80): 93 % of control
- T/C (dose: 100.0 mg/kg/injection, schedule: Q04DX002 (ip), vehicle: saline with Tween-80): 100 % of control and 95 % of control

Structure (SMILES): CC1(C)C(=O)C(O)=Cc2ccccc21
- T/C [3]: 109 % of control
- T/C [4]: 107 % of control
- T/C [5]: 101 % of control

Structure (SMILES): CCCCN(CCC#N)C(N)=O
- T/C [3]: 100 % of control
- T/C [4]: 100 % of control
- T/C [5]: 100 % of control

Structure (SMILES): Cc1nc2c(cnn2C)c(=O)[nH]1
- T/C [3]: 96 % of control
- T/C [4]: 98 % of control
- T/C [5]: 97 % of control

Structure (SMILES): COC(=O)CC1CSCC1=O (stereo unspecified)
- T/C [6]: 105 % of control
- T/C [7]: 100 % of control
- T/C (dose: 240.0 mg/kg/injection, schedule: Q01DX005 (ip), vehicle: saline with Tween-80): 105 % of control

Structure (SMILES): Cc1cc(C)cc(C(O)(CBr)CC(C)(Cl)Cl)c1 (stereo unspecified)
- T/C (dose: 50.0 mg/kg/injection, schedule: Q01DX009 (ip), vehicle: saline + alcohol): 114 % of control
- T/C (dose: 100.0 mg/kg/injection, schedule: Q01DX009 (ip), vehicle: saline + alcohol): 119 % of control
- T/C (dose: 200.0 mg/kg/injection, schedule: Q01DX009 (ip), vehicle: saline + alcohol): 120 % of control

Structure (SMILES): CN1CCCN(C)C1c1cc([N+](=O)[O-])ccc1O
- T/C (dose: 6.25 mg/kg/injection, schedule: Q01DX009 (ip), vehicle: saline sonified): 100 % of control
- T/C (dose: 12.5 mg/kg/injection, schedule: Q01DX009 (ip), vehicle: saline sonified): 100 % of control
- T/C (dose: 25.0 mg/kg/injection, schedule: Q01DX009 (ip), vehicle: saline sonified): 100 % of control

Structure (SMILES): Cc1c(C)c2c(=O)c3ccccc3[nH]c2c2ccccc12
- T/C [3]: 108 % of control
- T/C [4]: 98 % of control
- T/C [5]: 109 % of control

Structure (SMILES): COC(=O)c1cc(-c2ccc(OC)cc2)[nH]c(=O)c1C#N
- T/C [6]: 100 % of control
- T/C [7]: 91 % of control

Structure (SMILES): COc1ccc(/C=C/C(=O)c2c(N)n(C)c(=O)n(C)c2=O)cc1
- T/C [3]: 91 % of control
- T/C [4]: 88 % of control

Structure (SMILES): C=C1C(=O)OC2/C=C(\C)CC/C=C(/C(=O)OC)C(OC(C)=O)C(OC(=O)C(C)(O)C(C)O)C12 (stereo unspecified)
- T/C (dose: 3.0 mg/kg/injection, schedule: Q01DX009 (ip), vehicle: Klucel (hydroxypropylcellulose) (HPC)): 116 % of control
- T/C (dose: 12.0 mg/kg/injection, schedule: Q01DX009 (ip), vehicle: Klucel (hydroxypropylcellulose) (HPC)): 122 % of control
- T/C (dose: 24.0 mg/kg/injection, schedule: Q01DX009 (ip), vehicle: Klucel (hydroxypropylcellulose) (HPC)): 120 % of control

Structure (SMILES): CC1=CC(C)=C(C#N)C2=S=C(c3ccccc3)C(=O)N12
- T/C [1]: 97 % of control
- T/C [2]: 94 % of control
- T/C (dose: 25.0 mg/kg/injection, schedule: Q01DX005 (ip), vehicle: saline with Tween-80): 94 % of control
- T/C (dose: 100.0 mg/kg/injection, schedule: Q01DX005 (ip), vehicle: saline with Tween-80): 88 % of control
- T/C (dose: 200.0 mg/kg/injection, schedule: Q01DX005 (ip), vehicle: saline with Tween-80): 88 % of control

Structure (SMILES): CCOC(=O)CC(C)C#N (stereo unspecified)
- T/C (dose: 50.0 mg/kg/injection, schedule: Q01DX009 (ip), vehicle: saline with Tween-80): 99 % of control
- T/C (dose: 100.0 mg/kg/injection, schedule: Q01DX009 (ip), vehicle: saline with Tween-80): 99 % of control
- T/C (dose: 200.0 mg/kg/injection, schedule: Q01DX009 (ip), vehicle: saline with Tween-80): 101 % of control

Structure (SMILES): [C-]#[O+].[C-]#[O+].[CH3][Sn]([CH3])[c]1ccccc1.[Fe+5].[c-]1[c-][c-][cH-][c-]1
- T/C (dose: 100.0 mg/kg/injection, schedule: Q04DX003 (ip), vehicle: saline with Tween-80): 108 % of control
- T/C (dose: 200.0 mg/kg/injection, schedule: Q04DX003 (ip), vehicle: saline with Tween-80): 118 % of control

Structure (SMILES): S=C(Nc1ccccc1)P(c1ccccc1)c1ccccc1
- T/C [3]: 111 % of control and 99 % of control
- T/C [4]: 116 % of control and 89 % of control
- T/C [5]: 111 % of control and 89 % of control
